Where two headings read alike, the source gives them in different places.
How the values were obtained:
[1] = Example 2 Phase I study in healthy Japanese men: safety and tolerability; assay type: in vivo, human
Excerpt: This study was a randomised, placebo-controlled, single-blind, and parallel-group clinical trial with up to 3 dose-escalation schemes (Dose Groups [DGs]1 to 3) in healthy Japanese male subjects with BMI 23 to 40 kg/m^2. The weekly (DG1 and DG2) or twice a week (DG3) dosing in this scheme allowed for immediate clinical evaluation whether a further increase in the cumulative weekly dose was safe and well tolerated. The treatment duration was 16 weeks in total including a dose escalation phase to minimize Gastrointestinal (GI) Adverse Events (AEs) of Compound I. This was followed by a 4-week follow-up period.
The primary endpoint to assess the safety and tolerability of Compound I was the cumulative percentage (%) of subjects withdrawn from the up-titration by the dose escalation scheme.
• AEs (including clinically relevant findings from the physical examination) • Safety laboratory tests • 12-lead electrocardiogram (ECG) • Continuous ECG monitoring • Vital signs (blood pressure, pulse rate) • Columbia-Suicide Severity Rating Scale (C-SSRS) • Change from baseline in heart rate following treatment with Compound I relative to placebo (until 24 hours after Compound I administration) • The cumulative number [N (%)] of subjects withdrawn from the up-titration by the dose escalation scheme and week
The main objective of this trial was to assess the safety and tolerability of Compound I as well as PK and PD parameters by using descriptive statistics for all endpoints, which were compared across treatment groups. Further analysis comprised linear modelling for attainment of steady state in DG1.

[2] = first-in-man Phase I single-rising-dose study, adverse events; assay type: in vivo, human
Procedure: Compound I was recently studied in a first-in-man Phase I single-rising-dose study. In this study, a dose of 0.3 mg led to ‘mild loss of appetite’ in 33% of healthy subjects. This specific AE increased to 50% in the 0.5 mg dose group. Dose escalation to 1.2 mg was associated with 83% of the subjects experiencing moderate to severe nausea for 1 to 6 days and mild to severe vomiting.

[3] = plasma half-life in humans; assay type: in vivo; conditions: human, estimated
[4] = Example 1: plasma pharmacokinetics; assay type: in vivo; conditions: human, sc; for Cmax: read-out: Cmax (gMean)

For `CC[C@H](C)[C@H](NC(=O)[C@H](Cc1ccccc1)NC(=O)[C@H](CC(=O)O)NC(=O)[C@H](CCCCN)NC(=O)[C@H](C)NC(=O)[C@H](C)NC(=O)[C@H](CCCNC(=N)N)NC(=O)[C@H](CCC(=O)O)NC(=O)[C@H](CC(=O)O)NC(=O)[C@H](CC(C)C)NC(=O)[C@H](Cc1ccc(O)cc1)NC(=O)[C@H](CCCCN)NC(=O)[C@H](CO)NC(=O)[C@H](Cc1ccc(O)cc1)NC(=O)[C@H](CC(=O)O)NC(=O)[C@H](CO)NC(=O)[C@@H](NC(=O)[C@H](Cc1ccccc1)NC(=O)[C@@H](NC(=O)CNC(=O)[C@H](CCC(N)=O)NC(=O)C1(NC(=O)[C@@H](N)Cc2c[nH]cn2)CCC1)[C@@H](C)O)[C@@H](C)O)C(=O)N[C@@H](CCCCNC(=O)CNC(=O)CNC(=O)[C@H](CO)NC(=O)CNC(=O)[C@H](CO)NC(=O)CNC(=O)CC[C@H](NC(=O)CCCCCCCCCCCCCCCCC(=O)O)C(=O)O)C(=O)N[C@@H](Cc1c[nH]c2ccccc12)C(=O)N[C@@H](CC(C)C)C(=O)N[C@@H](CCC(=O)O)C(=O)N[C@@H](CO)C(=O)N[C@@H](C)C(N)=O` [Compound I], the “AEs in the cardiac disorder class” value ([1]; Ex.2) was “no AEs reported”, the clinical laboratory values ([1]; Ex.2) was “Findings of clinical relevance were not observed” and the “deaths and AEs of special interest” value ([1]; Ex.2) was “neither deaths nor AEs of special interest reported”. For the same molecule, the “vital signs, ECG evaluation, local tolerability, suicidal risk assessment” value ([1]; Ex.2) was “No clinically relevant findings”, the “Subjects with investigator defined drug-related AEs” value ([1]; Ex.2 Cmp I Total) was 27 N and the “Number of subjects withdrawn from the up-titration” value (“Number of subjects withdrawn” for short) ([1]; Ex.2 Compound I Total) was 10 N. The pulse rate ([1]; Ex.2 Compound I dosing groups) was “expected increase in pulse rate”, the “Number of subjects withdrawn” value ([1]; Ex.2 DG1) was 2 N and the “subjects with AE decreased appetite” value ([1]; Ex.2 DG1) was 8 subjects. For the same molecule, the “subjects with AE decreased appetite” value ([1]; Ex.2 DG1, of 9 trial subjects) was 88.9%, the “Number of subjects withdrawn” value ([1]; Ex.2 DG2) was 6 N and the “subjects with AE decreased appetite” value ([1]; Ex.2 DG2) was 9 subjects. The “subjects with severe vomiting” value ([1]; Ex.2 DG2) was 1 subject, the “subjects with AE decreased appetite” value ([1]; Ex.2 DG2, of 9 trial subjects) was 100.0% and the “subjects with severe vomiting” value ([1]; Ex.2 DG2, of 9 trial subjects) was 11.1%. The “subjects with AE decreased appetite” value ([1]; Ex.2 DG3) was 7 subjects, the “subjects with severe diarrhoea” value ([1]; Ex.2 DG3) was 1 subject and the “Number of subjects withdrawn” value ([1]; Ex.2 DG3 (twice weekly)) was 2 N. The “subjects with AE decreased appetite” value ([1]; Ex.2 DG3, of 9 trial subjects) was 77.8%, the “subjects with severe diarrhoea” value ([1]; Ex.2 DG3, of 9 trial subjects) was 11.1% and the “healthy subjects with mild loss of appetite” value ([2]; single dose 0.3 mg) was 33%. The “healthy subjects with mild loss of appetite” value ([2]; single dose 0.5 mg) was 50%, the “subjects with moderate to severe nausea for 1 to 6 days and mild to severe vomiting” value ([2]; single dose 1.2 mg) was 83% and the half-life [3] was ~110 h. It also gave an AUC(0-t) ([4]; 0.3 mg, Ex.1 twice weekly scheme, wk 1, 0.3 mg sc, read-out: AUC0-72 (gMean)) of 0.342 µM·h, a Cmax ([4]; 0.3 mg, Ex.1 twice weekly scheme, wk 1, 0.3 mg sc) of 5.38 nM and an AUC(0-t) ([4]; 0.3 mg, Ex.1 weekly scheme 1, wk 1, 0.3 mg sc, read-out: AUC0-168 (gMean)) of 0.617 µM·h. For the same molecule, the Cmax ([4]; 0.3 mg, Ex.1 weekly scheme 1, wk 1, 0.3 mg sc) was 5.08 nM, the AUC(0-t) ([4]; 0.4 mg, Ex.1 weekly scheme 2, wk 1, 0.4 mg sc, read-out: AUC0-168 (gMean)) was 0.818 µM·h and the Cmax ([4]; 0.4 mg, Ex.1 weekly scheme 2, wk 1, 0.4 mg sc) was 6.51 nM. It also gave an AUC(0-t) ([4]; 0.6 mg, Ex.1 twice weekly scheme, wk 3, 0.6 mg sc, read-out: AUC0-72 (gMean)) of 1.2 µM·h, a Cmax ([4]; 0.6 mg, Ex.1 twice weekly scheme, wk 3, 0.6 mg sc) of 20.4 nM and an AUC(0-t) ([4]; 0.6 mg, Ex.1 weekly scheme 1, wk 2, 0.6 mg sc, read-out: AUC0-168 (gMean)) of 1.41 µM·h. It also gave a Cmax ([4]; 0.6 mg, Ex.1 weekly scheme 1, wk 2, 0.6 mg sc) of 12.3 nM, an AUC(0-t) ([4]; 0.6 mg, Ex.1 weekly scheme 3, wk 1, 0.6 mg sc, read-out: AUC0-168 (gMean)) of 1.24 µM·h and a Cmax ([4]; 0.6 mg, Ex.1 weekly scheme 3, wk 1, 0.6 mg sc) of 10.7 nM. The AUC(0-t) ([4]; 0.6 mg, Ex.1 weekly scheme 3, wk 2, 0.6 mg sc, read-out: AUC0-168 (gMean)) was 1.71 µM·h, the Cmax ([4]; 0.6 mg, Ex.1 weekly scheme 3, wk 2, 0.6 mg sc) was 14.4 nM and the AUC(0-t) ([4]; 0.6 mg, Ex.1 weekly scheme 4, wk 1, 0.6 mg sc, read-out: AUC0-168 (gMean)) was 1.57 µM·h. The Cmax ([4]; 0.6 mg, Ex.1 weekly scheme 4, wk 1, 0.6 mg sc) was 15.7 nM, the AUC(0-t) ([4]; 0.6 mg, Ex.1 weekly scheme 4, wk 3, 0.6 mg sc, read-out: AUC0-168 (gMean)) was 2.49 µM·h and the Cmax ([4]; 0.6 mg, Ex.1 weekly scheme 4, wk 3, 0.6 mg sc) was 22.3 nM. It also gave an AUC(0-t) ([4]; 0.6 mg, Ex.1 weekly scheme 5, wk 1, 0.6 mg sc, read-out: AUC0-168 (gMean)) of 1.44 µM·h, a Cmax ([4]; 0.6 mg, Ex.1 weekly scheme 5, wk 1, 0.6 mg sc) of 13.2 nM and an AUC(0-t) ([4]; 0.8 mg, Ex.1 weekly scheme 2, wk 2, 0.8 mg sc, read-out: AUC0-168 (gMean)) of 2.04 µM·h. It also gave a Cmax ([4]; 0.8 mg, Ex.1 weekly scheme 2, wk 2, 0.8 mg sc) of 16.9 nM, an AUC(0-t) ([4]; 0.9 mg, Ex.1 twice weekly scheme, wk 5, 0.9 mg sc, read-out: AUC0-72 (gMean)) of 2.39 µM·h and a Cmax ([4]; 0.9 mg, Ex.1 twice weekly scheme, wk 5, 0.9 mg sc) of 40.8 nM. The AUC(0-t) ([4]; 0.9 mg, Ex.1 twice weekly scheme, wk 6, 0.9 mg sc, read-out: AUC0-72 (gMean)) was 2.78 µM·h, the Cmax ([4]; 0.9 mg, Ex.1 twice weekly scheme, wk 6, 0.9 mg sc) was 49.2 nM and the AUC(0-t) ([4]; 0.9 mg, Ex.1 weekly scheme 1, wk 3, 0.9 mg sc, read-out: AUC0-168 (gMean)) was 2.48 µM·h. It also gave a Cmax ([4]; 0.9 mg, Ex.1 weekly scheme 1, wk 3, 0.9 mg sc) of 20.6 nM, an AUC(0-t) ([4]; 1.2 mg, Ex.1 twice weekly scheme, wk 7, 1.2 mg sc, read-out: AUC0-72 (gMean)) of 3.56 µM·h and a Cmax ([4]; 1.2 mg, Ex.1 twice weekly scheme, wk 7, 1.2 mg sc) of 58.8 nM. It also gave an AUC(0-t) ([4]; 1.2 mg, Ex.1 weekly scheme 1, wk 4, 1.2 mg sc, read-out: AUC0-168 (gMean)) of 3.36 µM·h, a Cmax ([4]; 1.2 mg, Ex.1 weekly scheme 1, wk 4, 1.2 mg sc) of 28.1 nM and an AUC(0-t) ([4]; 1.2 mg, Ex.1 weekly scheme 2, wk 3, 1.2 mg sc, read-out: AUC0-168 (gMean)) of 3.56 µM·h. The Cmax ([4]; 1.2 mg, Ex.1 weekly scheme 2, wk 3, 1.2 mg sc) was 31.7 nM, the AUC(0-t) ([4]; 1.2 mg, Ex.1 weekly scheme 3, wk 3, 1.2 mg sc, read-out: AUC0-168 (gMean)) was 3.23 µM·h and the Cmax ([4]; 1.2 mg, Ex.1 weekly scheme 3, wk 3, 1.2 mg sc) was 28.1 nM.
